How the values were obtained:
[1] = tested on: myeloid cells having a phenotype of CD31+; experiment: Myeloid cell proliferation after glycyrrhizin treatment without LPS stimulation; type: cell-based, mouse; conditions: 100, 200 or 300 μg/ml; cultured 48 hours; without stimulation by LPS
Procedure: It was examined whether myeloid cells are capable of proliferating even when treated with glycyrrhizin alone without stimulation of the myeloid cells with LPS.
Specifically, myeloid cells having a phenotype of CD31+ were isolated from mouse myeloid cells obtained in the same manner as in Example 2-2. The myeloid cells were treated with glycyrrhizin at a concentration of 100 μg/ml, 200 μg/ml, or 300 μg/ml, and then cultured for 48 hours. As a control, the myeloid cells were treated with 0.1 ml of PBS. Subsequently, the expression level of myeloid cells was examined by the same flow cytometric analysis as that used in Example <2-1>.

[2] = tested on: mouse myeloid cells; experiment: Differentiation into CD11b+Gr1 myeloid cells by glycyrrhizin concentration and culture time, flow cytometric analysis; type: cell-based; conditions: for expression level of CD11b+Gr1 myeloid cells: 300 μg/ml
Procedure: Flow cytometric analysis was performed to determine whether the concentration of glycyrrhizin with which myeloid cells were treated or culture time affects differentiation into CD11b+Gr1 myeloid cells from myeloid cells.
Specifically, mouse myeloid cells were obtained in the same manner as in Example <2-2>, treated with glycyrrhizin at a concentration of 100 μg/ml, 200 μg/ml, or 300 μg/ml, and then cultured for 24 hours or 48 hours. As a control, the myeloid cells were treated with 0.1 ml of PBS. Subsequently, the expression level of the myeloid cells was examined by the same flow cytometric analysis as that used in Example <2-1>.

[3] = tested on: iNOS; experiment: iNOS measurement by RT-PCR in glycyrrhizin-treated myeloid cells; type: cell-based, mouse; conditions: 100, 200 or 300 μg/ml, cultured 48 hours, vs negative control
Procedure: Specifically, myeloid cells were isolated from mice of the control of Example 1, treated with glycyrrhizin at a concentration of 100 μg/ml, 200 μg/ml, or 300 μg/ml, and then cultured for 48 hours. Thereafter, RT-PCR was performed. As a negative control, the myeloid cells were treated with 0.1 ml of PBS, and GAPDH was used as an expression control.

[4] = tested on: T cells; experiment: T cell activity measurement by CFSE analysis with glycyrrhizin-induced CD11b+Gr1 myeloid cells as stimulator cells; type: cell-based, mouse; conditions: stimulator cells from 300 μg/ml glycyrrhizin, 48 hours; responder:stimulator 1:1, 1:2, 1:4; 3 days
Procedure: Specifically, mouse myeloid cells were obtained in the same manner as in Example <2-2>, treated with 300 μg/ml of glycyrrhizin, and then cultured for 48 hours. Subsequently, CD11b+Gr1 myeloid cells induced to be differentiated were stained and separated with FACSAria to be used as stimulator cells, and for responder cells, T cells were isolated with FACSAria from splenocytes of mice of the control of Example 1 and stained with CFSE. The responder cells and the stimulator cells were treated with CD3 and CD28, which induce the activity of T cells, at a ratio of 1:1, 1:2, or 1:4 and further cultured for 3 days.

CC1(C)[C@@H](O[C@H]2O[C@H](C(=O)O)[C@@H](O)[C@H](O)[C@H]2O[C@@H]2O[C@H](C(=O)O)[C@@H](O)[C@H](O)[C@H]2O)CC[C@]2(C)[C@H]3C(=O)C=C4[C@@H]5C[C@@](C)(C(=O)O)CC[C@]5(C)CC[C@@]4(C)[C@]3(C)CC[C@@H]12 [glycyrrhizin, ammonium glycyrrhizinate]
proliferation of the myeloid cells [1]: increased in a manner dependent upon the concentration of glycyrrhizin
expression level of CD11b+Gr1 myeloid cells ([2]; cultured 24 hours (control 9.10%)): 29.5%
expression level of CD11b+Gr1 myeloid cells ([2]; cultured 48 hours (control 10.8%)): 53.1%
expression level of CD11b+Gr1 myeloid cells, concentration dependence ([2]; 100, 200 or 300 μg/ml, cultured 24 hours): increased in a concentration-dependent manner
expression level of iNOS [3]: increased in a concentration-dependent manner
activity of T cells [4]: the higher the proportion of the stimulator cells (CD11b+Gr1 myeloid cells), the lower the activity of T cells

Source: patent US20200071667A1, “COMPOSITION COMPRISING GLYCYRRHIZIN FOR INDUCING DIFFERENTIATION INTO MYELOID-DERIVED SUPPRESSOR CELL FROM MYELOID CELL” (Konkuk University Glocal Industry-Academic Collabo, priority 2018, published 2020)
